Laboratory results: article PMC11653243, “Enhancing Phototoxicity in BODIPY‐Perylene Charge Transfer Dyads by Combined Iodination and Mesylation” (Chemistry (Weinheim an Der Bergstrasse, Germany), 2024)
“And” between values parts separate entries of the source, which are not always exact repeats. Identical values can stand only once.

How the values were obtained:
[1] = tested on: MCF‐7 cells; experiment: Cellular uptake and co-localisation by confocal microscopy; assay type: cell-based; settings: ER Tracker 1 µM, 45 min
Description: (§1) The intracellular uptake of the BODIPY derivatives was assessed in two mammalian cell lines, CHO (non‐cancer) and MCF‐7 (cancer). […] B2P and B2PI were studied following 4 h and 17 h incubation in MCF‐7 cells with 10 μM of each BODIPY derivative. A 17 h incubation was selected to allow for adequate cell uptake of the complex, ensuring sufficient brightness for confocal imaging while minimising cell toxicity.
(§2) Across all four compounds uptake of the BODIPYs led to extremely bright and highly punctate staining from within the cells. As all of the BODIPY‐perylene probes emit minimally from aqueous media including cell culture media (Figure S20) the bright emission is attributed to localisation of the complex to non‐aqueous domains, i. e. organelle membranes or to lipid droplets (LDs). To identify which, co‐localisation studies with targeted probes were completed. CHO and MCF‐7 cells were treated with B2P, B2PI, MB2P or MB2PI and co‐stained with specific organelle markers including LD probes; PyLa−C17Cer and BODIPY 493/503, an endoplasmic reticulum stain; ER Tracker Blue‐White and a lysosomal stain; LysoTracker Deep Red. Pyla‐C17Cer was previously published and localises in both the ER and LDs.[41] Cellular uptake of B2PI was recently reported in MCF‐7 cells, though localisation was not explored.[25]
(§3) MCF‐7 and CHO cells were treated with B2P, MB2P, B2PI or MB2PI for 17 h and co‐stained with a number of dyes for co‐staining including LysoTracker Deep Red, ER Tracker Blue/White, PyLa−C17Cer, BODIPY 493/503 and H2DCFDA. Cells were imaged in phenol red free media using a Leica DMi8 confocal microscope with a 63x or 100x oil immersion lens and a heated state at 37 °C.
(§4) Uptake in Live Cell Monolayers
(§5) CHO cells were incubated in 75cm2 cell culture flasks (Corning) with DMEM/F-12 Ham medium (Sigma-Aldrich) with L-glutamine and sodium bicarbonate supplemented with 10% fetal bovine serum (FBS) (Gibco) and 1% penicillin-streptomycin (Sigma-Aldrich). MCF-7 cells were incubated in 25cm2 cell culture flasks with RPMI-1640 medium (Sigma-Aldrich) with L-glutamine and sodium bicarbonate supplemented with 10% fetal bovine serum (FBS, Gibco) and 1% penicillin-streptomycin. Cells were incubated at 37 °C with 5% CO2 and detached from the flask at 90% confluency using a 1X Trypsin-EDTA solution (Sigma-Aldrich). Cells were counted using the EVE automated cell counter (NanoEnTek) and seeded at 1 x 10^5 cells per mL in a 4 or 8 chamber µ-slide (ibidi) for cell imaging and left for 24 h at 37 °C. Cells were rinsed with 1X PBS (Gibco) and stained with B2P or B2PI at 10 µM and MB2P or MB2PI at 30 µM for 17 h. Cells were washed twice with PBS and covered with phenol red free RPMI medium (Gibco) for imaging. […]

[2] = tested on: CHO cells; experiment: as above; assay type: cell-based, Chinese Hamster; settings: ER Tracker 1 µM, 45 min
Description: as §1, §2, §3, §4, §5

[3] = tested on: MCF‐7 cells; experiment: Dark toxicity, 24 h, alamar blue assay; assay type: cell-based; settings: Homo sapiens, MCF7, light or radiation study, without irradiation, 24 h in the dark at 37 °C
Description: Typical of many BODIPY derivatives, the BODIPY's presented in this work are insoluble in aqueous media, including PBS, and thus the main stock solutions (2–3 mM) were prepared in 100 % DMSO and diluted in media immediately before treating the cells. The maximum concentration for dark toxicity was set at 50 μM to keep the concentration of DMSO ≤1 % (v/v) to maintain cell health. As a result, it was not possible to determine an exact dark IC50 value as concentrations above 50 μM demanded DMSO concentrations that would affect the viability of the cells. Dietzek‐Ivanšić et al previously reported on the effect of DMSO on MCF‐7 cell viability, where cell viability remained high (95 %) in cells treated with 1 % DMSO in cell culture media for 24 h, whereas only 40 % of cells remained viable after treatment with 3.8 % DMSO. Working stocks in cell culture media remained stable within the incubation times used for cellular studies i. e. up to 24 h.[25]
Dark‐ and photo‐toxicity studies were performed by seeding CHO and MCF‐7 cells in clear 96‐well plates (Nunc) and treating with varying concentrations of B2P, MB2P, B2PI and MB2PI. Phototoxicity experiments were carried out using a 470 nm LED. For hypoxic phototoxicity studies, hypoxia was mimicked by adding CoCl2 to the cells prior to irradiation. Cell viability was determined using the alamar blue assay and absorbance measured with a BMG LABTECH CLARIOstar plate reader. […]
For 24 h dark toxicity studies, 50, 10, 5 and 1 µM stock concentrations of B2P, B2PI, MB2P and MB2PI were prepared in media to a final DMSO concentration of ≤1%. 100 µL of each concentration was added to the wells in triplicate and the plates incubated for 24 h in the dark at 37°C. Cell viability of all plate-based studies was assessed using the alamar blue assay. A 10% Resazurin-media solution (alamarBlue, Invitrogen) was added to the wells and incubated for 5 h in the absence of light. Absorbance was measured using a BMG LABTECH CLARIOstar plate reader at 570 nm and 600 nm (corrected for background subtraction). Cell viability is presented as a percentage (%) compared to untreated control wells. Plates were performed in triplicate. […]

| Structure (SMILES) | Pearson Coefficient (r) with ER Tracker Blue/White [1] | Pearson Coefficient (r) with ER Tracker Blue/White [2] | IC50 [3] |
| --- | --- | --- | --- |
| CC1=CC(C)=[N+]2C1=C(c1ccccc1)c1c(C)c(-c3ccc4c5cccc6cccc(c7cccc3c74)c65)c(C)n1[B-]2(F)F [B2P] | 0.14 ± 0.07 | 0.17 ± 0.06 | > 50 µM |
| CC1=C(I)C(C)=[N+]2C1=C(c1ccccc1)c1c(C)c(-c3ccc4c5cccc6cccc(c7cccc3c74)c65)c(C)n1[B-]2(F)F [B2PI] | 0.19 ± 0.05 | 0.46 ± 0.04 and ~0.5 | > 50 µM |
| CC1=C(c2ccc3c4cccc5cccc(c6cccc2c63)c54)C(C)=[N+]2C1=C(c1c(C)cc(C)cc1C)c1c(C)cc(C)n1[B-]2(F)F [MB2P] | 0.54 ± 0.04 and ~0.5 | 0.56 ± 0.02 and ~0.5 | > 50 µM |
| CC1=C(c2ccc3c4cccc5cccc(c6cccc2c63)c54)C(C)=[N+]2C1=C(c1c(C)cc(C)cc1C)c1c(C)c(I)c(C)n1[B-]2(F)F [MB2PI] | 0.53 ± 0.04 and ~0.5 | 0.46 ± 0.01 and ~0.5 | > 50 µM |
